# From patent US20230357708A1, “BI[…] PARA-HYDROXYBENZOIC ACID FROM METHANOL AND METHANE” (The Board of Trustees of the Leland Stanford Junior …, priority 2020, published 2023)
# What was measured:
# [1] = test system: M. buryatense 5GB1 (5G) strain; assay: 4HBA toxicity test, streaks on plates with horizontal 4HBA-gradient; format: cell-based, Methylotuvimicrobium buryatense; settings: background-strain streaks, 4HBA-gradient 0-10 mM, pH 8.9
# Description: (§1) Fast growers were mutants with changed 4HBA-operon sequence. Fast-growing mutant #1 produced some 4HBA. […] The toxic conditions in turn favoured re-arrangement and/or point mutations of the plasmid. Streaks of the transconjugants on solid medium without methanol, grew comparatively well The solid medium was supplemented with nutrient broth, NMS2.1kan and MeOH. Toxicity tests with varying 4HBA concentrations was performed.
# [2] = test system: M. alcahphilum 20Z strain; assay: as above; format: cell-based, Methylomicrobium alcaliphilum; settings: background-strain streaks, 4HBA-gradient 0-10 mM, pH 8.9
# Description: as §1
structure (smiles),measurement,setting,value
"O=C(O)c1ccc(O)cc1 [4HBA, para-hydroxybenzoic acid]",effect of 4HBA on growth,[1],significant inhibitory effect
same,effect of 4HBA on growth compared with the M. alcahphilum 20Z strain,[1],more severely affected
same,effect of 4HBA on growth,[2],significant inhibitory effect
